Assay results from patent US10798941B2, “Microbiocidal oxadiazole derivatives” (SYNGENTA PARTICIPATIONS AG, priority 2016, dated 2020).
Values joined by “and” are separate entries in the source; they are usually repeats but may differ in a detail not shown here. Equal entries are not always repeated.

Legend:
[1] = system: Puccinia recondita f. Sp. Tritici; experiment: Puccinia recondita f. sp. tritici / wheat / leaf disc preventative (brown rust); format: in vivo; conditions: foliar, 168 h, 200 ppm in the applied formulation, wheat leaf segments cv. Kanzler, preventative, inoculated 1 day after application, assessed 7 to 9 days after application, vs untreated, read-out: disease control
How it was run: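 Wheat cv. Kanzler leaf segments on agar were sprayed with formulated compound in water, then inoculated with spores 1 day later. Incubated at 19° C, 75% rh, 12 h light/12 h dark; percent disease control versus untreated scored 7 to 9 days after application.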

[2] = system: Glomerella Lagenarium (Colletotrichum Lagenarium); experiment: Glomerella lagenarium (Colletotrichum lagenarium) liquid culture / cucumber / preventative (anthracnose); format: cell-based; conditions: Colletotrichum orbiculare; 20 ppm in the applied formulation; liquid culture in PDB, 24° C., inhibition of growth measured photometrically 3 to 4 days after application, vs untreated; read-out: disease control
How it was run: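 Conidia from cryogenic storage were mixed into potato dextrose broth. This was added to compound diluted from DMSO into 0.025% Tween20, tested at 20 ppm. Plates were incubated in the dark at 24 °C and 96% relative humidity, and growth was read photometrically after 2–7 days as % activity versus untreated check.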

[3] = system: Puccinia recondita f. Sp. Tritici; experiment: Puccinia recondita f. sp. tritici / wheat / leaf disc curative (brown rust); format: in vivo; conditions: foliar, 144 h, 200 ppm in the applied formulation, wheat leaf segments cv. Kanzler, applied 1 day after inoculation, assessed 6 to 8 days after application, vs untreated, read-out: disease control
How it was run: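 Spray application came one day after spore inoculation of Kanzler wheat leaf segments kept on agar. Conditions: 19° C, 75% relative humidity, dark before treatment and 12 h light/12 h dark after. Efficacy = % disease control compared with untreated, 6–8 days post-application.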

Phakopsora pachyrhizi = Phakopsora pachyrhizi / soybean / leaf disc preventative (Asian soybean rust); format: in vivo; conditions: foliar, 288 h, 200 ppm in the applied formulation, soybean leaf disks, inoculated one day after application, assessed 12 to 14 days after application, vs untreated, read-out: disease control
How it was run: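 Read-out is percent disease control relative to untreated check discs, assessed once untreated discs show adequate disease, 12 to 14 days after application. Compounds, tested at 200 ppm in the applied formulation, are sprayed onto soybean leaf discs one day before inoculation with a spore suspension.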

| SMILES | melting point | pest or weed control at 200 ppm [1] [%] | inhibition of growth at 20 ppm [2] [%] | pest or weed control at 200 ppm [3] [%] | pest or weed control at 200 ppm (Phakopsora pachyrhizi) [%] |
| --- | --- | --- | --- | --- | --- |
| FC(F)(F)c1nc(-c2ccc(Cn3cc(-c4ccccn4)nn3)cc2)no1 [Compound 1.22, 3-[4-[[4-(2-pyridyl)triazol-1-yl]methyl]phenyl]-5-(trifluoromethyl)-1,2,4-oxadiazole] | 160.2 to 162.4 °C | ≥ 80 | ≥ 80 | ≥ 80 | ≥ 80 |
| FC(F)(F)c1nc(-c2ccc(Cn3cc(-c4cccnc4)nn3)cc2)no1 [Compound 1.23, 3-[4-[[4-(3-pyridyl)triazol-1-yl]methyl]phenyl]-5-(trifluoromethyl)-1,2,4-oxadiazole] | 159.8 to 163.1 °C | ≥ 80 | ≥ 80 | ≥ 80 | ≥ 80 |
| FC(F)(F)c1nc(-c2ccc(Cn3cc(C4CCCC4)nn3)cc2)no1 [Compound 1.24, 3-[4-[(4-cyclopentyltriazol-1-yl)methyl]phenyl]-5-(trifluoromethyl)-1,2,4-oxadiazole] | 117.9 to 118.8 °C and 117 to 119 °C | ≥ 80 | ≥ 80 |  | ≥ 80 |
| C[Si](C)(C)c1cn(Cc2ccc(-c3noc(C(F)(F)F)n3)cc2)nn1 [Compound 1.25, trimethyl-[1-[[4-[5-(trifluoromethyl)-1,2,4-oxadiazol-3-yl]phenyl]methyl]triazol-4-yl]silane] | 87.8 to 89.5 °C | ≥ 80 | ≥ 80 | ≥ 80 | ≥ 80 |
| FC(F)(F)c1nc(-c2ccc(Cn3cc(COc4ccccc4)nn3)cc2)no1 [Compound 1.28, 3-[4-[[4-(phenoxymethyl)triazol-1-yl]methyl]phenyl]-5-(trifluoromethyl)-1,2,4-oxadiazole] | 103.2 to 104.9 °C | ≥ 80 | ≥ 80 |  | ≥ 80 |
| CCOC(=O)c1cn(Cc2ccc(-c3noc(C(F)(F)F)n3)cc2)nn1 [Compound 1.276, ethyl 1-[[4-[5-(trifluoromethyl)-1,2,4-oxadiazol-3-yl]phenyl]methyl]triazole-4-carboxylate] | 134 to 136 °C | ≥ 80 | ≥ 80 |  | ≥ 80 |
| CC(C)OC(=O)c1cn(Cc2ccc(-c3noc(C(F)(F)F)n3)cc2)nn1 [Compound 1.278, isopropyl 1-[[4-[5-(trifluoromethyl)-1,2,4-oxadiazol-3-yl]phenyl]methyl]triazole-4-carboxylate] | 146 to 148 °C | ≥ 80 | ≥ 80 |  | ≥ 80 |
| CCON=Cc1cnn(Cc2ccc(-c3noc(C(F)(F)F)n3)cc2)c1 [Compound 1.286, N-ethoxy-1-[1-[[4-[5-(trifluoromethyl)-1,2,4-oxadiazol-3-yl]phenyl]methyl]pyrazol-4-yl]methanimine] | 80 to 120 °C | ≥ 80 | ≥ 80 |  | ≥ 80 |
| FC(F)(F)c1nc(-c2ccc(CN3CCSCC3)cc2)no1 [Compound 1.302, 3-[4-(thiomorpholino-methyl)phenyl]-5-(trifluoromethyl)-1,2,4-oxadiazole] | 54.5 to 56.6 °C | ≥ 80 | ≥ 80 | ≥ 80 |  |
| CCOC(=O)c1cnn(CCc2ccc(-c3noc(C(F)(F)F)n3)cc2)c1 [Compound 1.310, ethyl 1-[2-[4-[5-(trifluoromethyl)-1,2,4-oxadiazol-3-yl]phenyl]ethyl]pyrazole-4-carboxylate] | 108 to 110 °C | ≥ 80 |  |  | ≥ 80 |
